Test results: PMC3154276, “The Effect of the Potential PhoQ Histidine Kinase Inhibitors on Shigella flexneri Virulence” (PLoS ONE, 2011)

Tested on: S. flexneri Sf9380
Assay: Gentamicin protection assay, intracellular growth and spreading to adjacent cell of Sf9380
Assay type: cell-based
Details: for intracellular growth and spreading to adjacent cell of Sf9380 (bacteria recovered / inoculated): further incubated 290 min, untreated Sf9380 0.12
Protocol: The growth curve of Sf9380 treated with or without potential PhoQ inhibitors at concentration 200 µmol/L were tested. […] The gentamicin protection assay was used as a cellular model to evaluate the inhibitory effect of the four potential PhoQ inhibitors. The bacteria were treated with each of the four potential PhoQ inhibitors in a serial dilution and grown for 8 hours. Next, the bacteria were inoculated and incubated with HeLa cells for 60 min prior to the addition of gentamicin to kill extracellular bacteria. For testing intracellular growth and spreading to adjacent cell, cells were further incubated for 290 min [9]. The results of the assays were expressed as the number of bacteria recovered from gentamicin-treated cells divided by the number of inoculated bacteria added to the cell. After lysates of HeLa cells were plated, the number of CFU that formed on LB agar were counted.
Figure 6 The effects of potential PhoQ inhibitors on virulence of Shigella. […] The bacteria pre-treated with potential PhoQ inhibitor were added to HeLa cells at a multiplicity of infection of 100. Then gentamicin was added to kill extracellular bacteria and cell lysates were plated onto LB plates, and the colonies were counted. The results of the assays were expressed as the number of bacteria recovered from gentamicin-treated cells divided by the number of inoculated bacteria added to the cell. S. flexneri Sf9380 (treated without DMSO), a clinical strain with strong virulence, served as the positive control for the cell invasion assay; E. coli ATCC 25922 (treated without DMSO), an avirulent strain, served as the negative control for the cell invasion assay; bacteria treated with 0.1% DMSO (the solvent of the potential PhoQ inhibitor) also served as a control for the cell invasion assay. Values are means ± standard deviations from 6 independent wells. *p<0.01 vs. Sf9380. (A) The effects of potential PhoQ inhibitors on cell invasion of S. flexneri Sf9380 (B) The effects of potential PhoQ inhibitors on intracellular growth S. flexneri Sf9380. (C) The effects of potential PhoQ inhibitors on cell invasion of S. flexneri 2a 301 phoQ/phoP knock-out mutant.
Bacterial ability to invade HeLa cells was tested with a gentamicin protection assay. HeLa cells were grown in six-well tissue culture plates to semi-confluent monolayers (DMEM, 10% FCS, 5% CO2). Sf9380 or Sf301 ΔphoQ/phoP was treated with potential PhoQ inhibitors for 8 hours in LB at 37°C (final concentrations of 100,50,25,12.5 or 6.25 µmol/L) prior to infection. The bacteria pre-treated with potential PhoQ inhibitor without washing, were added to semi-confluent HeLa cells at a multiplicity of infection of 100, at the same time the bacteria were diluted and plated onto LB agar plates. The CFUs were counted as initial bacterial number before added into HeLa cells. Then the plates were centrifuged at 900×g for 5 minutes. After incubating at 37°C for 60 minutes (For testing intracellular growth and spreading to adjacent cell, cells were further incubated for 290 min [9].), the cells were washed three times with PBS, and gentamicin was added to the medium to a final concentration of 10 µg/ml for 20 minutes at 37°C. After the incubation, the HeLa cells in each well were lysed in 1 ml of PBS containing 0.1% Triton X-100 for 10 minutes at room temperature. The lysates were diluted and plated onto LB agar plates in triplicate. Colonies grown on LB plates were counted. The results of the assays were expressed as the number of bacteria recovered from gentamicin-treated cells divided by the number of inoculated bacteria added to the cell. The cells were inoculated with untreated Sf9380 or Sf301 ΔphoQ/phoP (treated without DMSO) as a positive control and E. coli ATCC 25922, an avirulent strain treated without DMSO, as a negative control. […]

Compound: O=C(Nc1ccc(C2(c3cccc(NC(=O)c4cccc5ccccc45)c3)c3ccccc3C(=O)c3ccccc32)cc1)c1ccc2ccccc2c1 [Compound 1]
- times lower than untreated Sf9380, intracellular growth (12.5 µmo/L): 1.96 times
- intracellular growth and spreading to adjacent cell of Sf9380 (bacteria recovered / inoculated) (12.5 µmo/L): 0.061

Compound: CCOc1ccccc1-c1cc(C(=O)N/N=C/c2ccc(OCc3ccccc3)c(OC)c2)c2ccccc2n1 [Compound 2]
- times lower than untreated Sf9380, intracellular growth (25 µmo/L): 3.3 times
- intracellular growth and spreading to adjacent cell of Sf9380 (bacteria recovered / inoculated) (25 µmo/L): 0.036

Compound: O=C(O)c1ccc(Cl)c(-c2ccc(/C=N/NC(=O)c3ccc(Br)cc3)o2)c1 [Compound 3]
- times lower than untreated Sf9380, intracellular growth (100 µmo/L): 2.6 times
- intracellular growth and spreading to adjacent cell of Sf9380 (bacteria recovered / inoculated) (100 µmo/L): 0.046

Compound: O=C(O)c1cc(-c2ccc(-c3ccccc3Cl)o2)nc2ccc3ccccc3c12 [Compound 4]
- effect on cell intracellular growth of Sf9380 (100 µmo/L): no obvious effect
- intracellular growth and spreading to adjacent cell of Sf9380 (bacteria recovered / inoculated) (100 µmo/L): 0.12
